Values joined by “and” are separate entries in the source; they are usually repeats but may differ in a detail not shown here. Equal values may be shown once. Where a name gives a salt, the structure may show the parent alone. Marks after values point to notes of the source that are not given here.
Assays:
[1] = test system: Plasmodium berghei (KBG-173 strain); assay: In vivo antimalarial activity, modified Thompson Test (Table II); parameters: species or system Charles River CD-1 mice; settings: bid on days 3, 4, 5; for Average days Survival: 31 day experiment; for 6 day Parasetemia: % of red blood cells infected
Protocol: In vivo^1 antimalarial activity was tested in male or female Charles River CD-1 mice that were 4-5 weeks old and weighed 20-25 g. They were housed in groups of 3 or 4 in standard plastic cages with wire tops, bed-o-cob® bedding, 12 hr/day of light, and maintained at 75° F. They were fed a standard Ralston Purina mouse chow and the cages and water bottles were changed twice a week. Test compounds were ground in a mortar and pestle and diluted with enough vehicle to give a volume of 10 mL/kg of mouse weight. The oral doses were prepared in 0.5% hydroxyethylcellulose-0.1% Tween-80. The amount of drug was calculated on the free base weight. The mice were infected intraperitoneally on day 0 with 5×10^4 erythrocytes parasitized with Plasmodium berghei (KBG-173 strain) from a donor mouse having a parasitemia between 5-10%. On days 3, 4, 5 the test compounds were administered bid, spaced 6 h apart, to mice. Smears were made from tail blood on day +6 and twice a week thereafter. The smears were stained with Geimsa and examined microscopically. Parasitemias are reported as the % of the red blood cells that are infected. On day 6 the (suppression of) parasitemias of treated animals may be compared to the parasitemias of infected non-treated controls, but these infected non-treated controls die on days 7-12. Activity was also measured by survival. Full activity is defined as all animals living at day 31. Partial activity is defined as days of increased survival versus the infected non-treated controls.
^1This in vivo model is a modification of the Thompson Test. For further description see Ager, A. L., Jr. Rodent Malaria Models. In Handbook of Experimental Pharmacology: Antimalarial Drugs. I. 68/1; Peters, W., Richards, W. H. G., Eds.: Springer-Verlag: Berlin, 1984, pp. 231-33.

[2] = Toxicity: testis weight/body weight after 106 days of drug treated feed; settings: for Decrease in testis weight/body weight: after 106 days of drug treated feed; for Mean values for testes: Left, % body wt / Mean values for testes: Right, % body wt.: male CD-1 mice, 8-mice groups, drug treated feed 106 days (300 ppm first 79 days, 600 ppm days 80-106); for Mean values for testes: Left, % body wt: control 0.30; for Mean values for testes: Right, % body wt.: control 0.31; for Testis damage / observable pathology: organs examined for pathology after 106 days of drug treated feed
Source text: Male CD-1 mice were fed drug treated feed for 106 days. For the first 79 days the drug level was 300 ppm and then 600 ppm for days 80-106. The animals were then sacrificed and the organs were both weighed and examined for pathology.

Plasmodium berghei = assay: Comparison of antimalarial activity of analogs of PS-15 in infected mice (Table III); assay type: in vivo; settings: orally bid on days 3, 4, 5 in HEC Tween, infection control 08.0
Source text: Mice were infected with Plasmodium berghei on day 0 and the drugs were mixed in HEC Tween and given orally bid on days 3, 4, and 5 post infection. Blood films were taken on day 6 and twice weekly thereafter until day 30.

[3] = cited from earlier work
[4] = test system: multidrug-resistant P. falciparum; settings: administered orally to Aotus monkeys; cited from earlier work
[5] = test system: drug-resistant clones of P. falciparum; settings: cited from earlier work; for In vitro activity relative to comparator: drug-resistant clones of P. falciparum
P. berghei = settings: administered orally to mice infected with P. berghei; cited from earlier work
[6] = in vivo

Structure (SMILES): CC(C)NC(=N)NC(=N)NOCCCOc1ccc(Cl)c(Cl)c1 [PS-26, 1-[3-(3,4-dichlorophenoxy)propyloxy]-5-isopropylbiguanide(hemisuccinate)]
- Average days Survival ([1]; 16 mg/kg oral): 15.7 days and 16.6 days and 16.0 days
- 6 day Parasetemia ([1]; 16 mg/kg oral): 0% and 0.006%
- Average days Survival ([1]; 32 mg/kg oral): >29.3 days and >31 days
- 6 day Parasetemia ([1]; 32 mg/kg oral): 0%
- Average days Survival ([1]; 64 mg/kg oral): >31* days
- 6 day Parasetemia ([1]; 64 mg/kg oral): 0%
- Decrease in testis weight/body weight [2]: no decrease in testis weight/body weight
- Mean values for testes: Left, % body wt [2]: 0.29 % body wt
- Mean values for testes: Right, % body wt. [2]: 0.32 % body wt.
- Testis damage / observable pathology [2]: minimal to no observable pathology
- AVG. DAY OF DEATH (Plasmodium berghei; 16 MK/KG/DAY): 16.6 days
- AVG. DAY OF DEATH (Plasmodium berghei; 32 MK/KG/DAY): 15.5 days

Structure (SMILES): CC(C)NC(=N)NC(=N)NOCCCOc1ccc(Cl)cc1Cl [2,4-Dichloro]
- Mean values for testes: Left, % body wt [2]: 0.19 % body wt
- Mean values for testes: Right, % body wt. [2]: 0.20 % body wt.

Structure (SMILES): CC(C)NC(=N)NC(=N)NOCCCOc1ccc(Cl)cc1 [PS-33, 1-[3-(4-chlorophenoxy)propyloxy]-5-isopropylbiguanide(hemisuccinate)]
- Average days Survival ([1]; 16 mg/kg oral): 14.1 days and 15.1 days and 14.6 days and 13.6 days
- 6 day Parasetemia ([1]; 16 mg/kg oral): 1.8% and 2.7% and 1.94% and 1.1%
- Average days Survival ([1]; 32 mg/kg oral): 21.8 days and 15.9 days and 17.8 days and 12.8 days
- 6 day Parasetemia ([1]; 32 mg/kg oral): 0.01% and 0% and 0.006%
- Average days Survival ([1]; 64 mg/kg oral): >31* days and >24.7 days
- 6 day Parasetemia ([1]; 64 mg/kg oral): 0%
- Decrease in testis weight/body weight [2]: no decrease in testis weight/body weight
- Mean values for testes: Left, % body wt [2]: 0.27 % body wt
- Mean values for testes: Right, % body wt. [2]: 0.36 % body wt.
- Testis damage / observable pathology [2]: minimal to no observable pathology
- AVG. DAY OF DEATH (Plasmodium berghei; 16 MK/KG/DAY): 16.0 days
- AVG. DAY OF DEATH (Plasmodium berghei; 32 MK/KG/DAY): 19.5 days
- AVG. DAY OF DEATH (Plasmodium berghei; 64 MK/KG/DAY): 29.0 days

Structure (SMILES): CC(C)NC(=N)NC(=N)NOCCCOc1ccc(F)c(F)c1 [3,4-Difluoro]
- Mean values for testes: Left, % body wt [2]: 0.21 % body wt
- Mean values for testes: Right, % body wt. [2]: 0.23 % body wt.

Structure (SMILES): CC(C)NC(=N)NC(=N)NOCCCOc1cc(Cl)c(Cl)cc1Cl [PS-15, N-[3-(2,4,5-trichlorophenoxy)propyloxy]-N′-(1-methylethyl)imidodicarbonimidediamide hydrochloride, reference compound]
- Metabolism in vivo [3]: metabolized in vivo to WR99210
- Activity relative to proguanil or WR99210 [4]: more active than either proquanil or WR99210
- Average days Survival ([1]; 16 mg/kg oral, hydrochloride): 14.1 days and 15.1 days and 14.6 days and 13.6 days
- 6 day Parasetemia ([1]; 16 mg/kg oral, hydrochloride): 1.8% and 2.7% and 1.94% and 1.1%
- Average days Survival ([1]; 32 mg/kg oral, hydrochloride): 15.9 days and 17.8 days and 12.8 days and 21.8 days
- 6 day Parasetemia ([1]; 32 mg/kg oral, hydrochloride): 0% and 0.006% and 0.01%
- Average days Survival ([1]; 64 mg/kg oral, hydrochloride): >24.7 days and >31* days
- 6 day Parasetemia ([1]; 64 mg/kg oral): 0%
- Activity against drug-resistant Plasmodium falciparum ([5]; as described by Canfield et al. 1993): significant activity
- In vitro activity relative to comparator [5]: more active than proguanil
- Cross-resistance with other inhibitors of DHFR ([5]; versus pyrimethamine and cycloguanil): not cross-resistant
- Activity relative to proguanil (P. berghei): more active
- Toxicity relative to proguanil (P. berghei): less toxic than proguanil
- Mean values for testes: Left, % body wt [2]: 0.21 % body wt
- Mean values for testes: Right, % body wt. [2]: 0.22 % body wt.
- Testis damage / observable pathology [2]: Testis damage was found
- Testicular toxicity [6]: caused testicular toxicity
- AVG. DAY OF DEATH (Plasmodium berghei; 16 MK/KG/DAY): 15.1 days
- AVG. DAY OF DEATH (Plasmodium berghei; 32 MK/KG/DAY): 15.7 days
- AVG. DAY OF DEATH (Plasmodium berghei; 64 MK/KG/DAY): 17.0 days

Structure (SMILES): CC1(C)N=C(N)N=C(N)N1OCCCOc1cc(Cl)c(Cl)cc1Cl [WR99210]
- In vitro activity relative to comparator [5]: ten thousand times more active than the proquanil metabolite cycloguanil

— patent US6693217B2, “Antimalarial N,N′-substituted biguanides derived from hydroxylamines” (Jacobus Pharmaceutical Co., Inc., priority 2001, dated 2004)
